Reference: ChEMBL document CHEMBL1201862, “PubChem BioAssay data set” (2004)
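Values below derive from 48-hour exposures of cells grown in 96-well plates, with endpoints linearly interpolated between the two concentrations bracketing the appropriate inhibition level. Abbreviation: GI50, concentration required for 50% inhibition of growth.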 Calls of active or inactive are those of the source. Rule as the data show it: active = GI50 up to about 1.1 µM and inactive = higher.

How the values were obtained:
Test in all cases: growth of human tumour cells (NCI), 48 h
HCT-15 = tested on: HCT-15
HOP-62 = tested on: HOP-62
NCI-H460 = tested on: NCI-H460
ACHN = tested on: ACHN
Hs-578T = tested on: Hs-578T
CCRF-CEM = tested on: CCRF-CEM
SW-620 = tested on: SW-620
OVCAR-4 = tested on: OVCAR-4
HCT-116 = tested on: HCT-116
TK-10 = tested on: TK-10
RXF 393 = tested on: RXF 393
RPMI-8226 = tested on: RPMI-8226
NCI-H226 = tested on: NCI-H226
NCI-H23 = tested on: NCI-H23
NCI-H522 = tested on: NCI-H522
SK-MEL-5 = tested on: SK-MEL-5
U-251 = tested on: U-251
CAKI-1 = tested on: CAKI-1
SF-268 = tested on: SF-268
SNB-75 = tested on: SNB-75
SF-539 = tested on: SF-539
786-0 = tested on: 786-0
UO-31 = tested on: UO-31
UACC-257 = tested on: UACC-257
A498 = tested on: A498
SNB-19 = tested on: SNB-19
HT-29 = tested on: HT-29
PC-3 = tested on: PC-3
SF-295 = tested on: SF-295
HOP-92 = tested on: HOP-92
NCI/ADR-RES = tested on: NCI/ADR-RES
MDA-N = tested on: MDA-N
OVCAR-8 = tested on: OVCAR-8
MDA-MB-435 = tested on: MDA-MB-435
SN12C = tested on: SN12C
A549 = tested on: A549
Malme-3M = tested on: Malme-3M
SR = tested on: SR
KM12 = tested on: KM12
K562 = tested on: K562
COLO 205 = tested on: COLO 205
IGROV-1 = tested on: IGROV-1
HCC 2998 = tested on: HCC 2998
HL-60 = tested on: HL-60
MDA-MB-231 = tested on: MDA-MB-231
DU-145 = tested on: DU-145
MCF7 = tested on: MCF7
SK-MEL-28 = tested on: SK-MEL-28
EKVX = tested on: EKVX
OVCAR-3 = tested on: OVCAR-3
MOLT-4 = tested on: MOLT-4
BT-549 = tested on: BT-549
LOX IMVI = tested on: LOX IMVI
OVCAR-5 = tested on: OVCAR-5
SK-OV-3 = tested on: SK-OV-3
M14 = tested on: M14
UACC-62 = tested on: UACC-62
SK-MEL-2 = tested on: SK-MEL-2

Measured: GI50

Nc1nc(Cl)c(/C=N\O)c(NCC2(CO)CCC2)n1
inactive: HOP-62 30.6 µM | NCI-H460 32.1 µM | ACHN 26.3 µM | Hs-578T 28.2 µM | CCRF-CEM 28.5 µM | SW-620 > 100 µM | OVCAR-4 27 µM | HCT-116 13.7 µM | TK-10 21.8 µM | RXF 393 22.4 µM | RPMI-8226 8.11 µM | NCI-H226 23.2 µM | NCI-H23 1.73 µM | NCI-H522 14.8 µM | SK-MEL-5 28.8 µM | U-251 > 100 µM | CAKI-1 25.6 µM | SF-268 > 100 µM | SNB-75 59.3 µM | SF-539 33.8 µM | 786-0 41.7 µM | UO-31 19.9 µM | UACC-257 29.3 µM | A498 19.1 µM | SNB-19 53.2 µM | HT-29 59.3 µM | PC-3 43 µM | SF-295 21.2 µM | HOP-92 19.6 µM | NCI/ADR-RES 28.5 µM | MDA-N 44.4 µM | OVCAR-8 36.2 µM | MDA-MB-435 40.2 µM | SN12C 68.4 µM | A549 28.4 µM | Malme-3M 30.6 µM | SR 11.6 µM | KM12 6.25 µM | K562 14 µM | COLO 205 30.3 µM | IGROV-1 > 10 µM | HCC 2998 68.7 µM | HL-60 > 10 µM | MDA-MB-231 51.2 µM | DU-145 40.4 µM | MCF7 25.2 µM | SK-MEL-28 54.6 µM | EKVX 17.3 µM | OVCAR-3 24.2 µM | MOLT-4 13.5 µM | BT-549 32.6 µM | LOX IMVI 9.95 µM | OVCAR-5 70.8 µM
60.8 µM: HCT-15

C[C@@H]1[C@H](O)CC2=C(CC[C@@H](O)C2(C)C)[C@@]1(CO)CCc1ccoc1
inactive: HOP-62 > 50 µM | NCI-H460 > 50 µM | ACHN > 50 µM | Hs-578T > 50 µM | CCRF-CEM 29.4 µM | SW-620 > 50 µM | OVCAR-4 > 50 µM | HCT-116 > 50 µM | TK-10 > 50 µM | RXF 393 > 50 µM | NCI-H226 > 50 µM | NCI-H23 > 50 µM | SK-OV-3 > 50 µM | M14 > 50 µM | SK-MEL-5 > 50 µM | U-251 > 50 µM | CAKI-1 > 50 µM | SNB-75 31.8 µM | SF-539 > 50 µM | 786-0 > 50 µM | UO-31 > 50 µM | UACC-257 > 50 µM | A498 > 50 µM | SNB-19 > 50 µM | HT-29 > 50 µM | PC-3 46.3 µM | SF-295 > 50 µM | HOP-92 > 50 µM | NCI/ADR-RES > 50 µM | MDA-N > 50 µM | OVCAR-8 > 50 µM | SN12C > 50 µM | A549 > 50 µM | Malme-3M > 50 µM | UACC-62 > 50 µM | SR 25.1 µM | KM12 > 50 µM | K562 > 50 µM | COLO 205 > 50 µM | IGROV-1 > 50 µM | HCC 2998 > 50 µM | HL-60 15.8 µM | MDA-MB-231 > 50 µM | MCF7 > 50 µM | SK-MEL-28 > 50 µM | EKVX > 50 µM | OVCAR-3 > 50 µM | MOLT-4 34.7 µM | BT-549 > 50 µM | LOX IMVI > 50 µM | OVCAR-5 > 50 µM | SK-MEL-2 > 50 µM
> 50 µM: HCT-15

Cc1ccc(C(=O)C2=CN=C3C(=O)N(c4ccccc4)N(C)C3(C)C2=N)cc1 (centres undefined)
> 100 µM: HCT-15
inactive: NCI-H460 > 100 µM | ACHN > 100 µM | CCRF-CEM > 100 µM | SW-620 > 100 µM | OVCAR-4 > 100 µM | HCT-116 > 100 µM | TK-10 > 100 µM | RXF 393 > 100 µM | RPMI-8226 > 100 µM | NCI-H226 > 100 µM | NCI-H23 > 100 µM | SK-OV-3 > 100 µM | M14 > 100 µM | NCI-H522 > 100 µM | SK-MEL-5 > 100 µM | U-251 > 100 µM | CAKI-1 > 100 µM | SNB-75 > 100 µM | SF-539 > 100 µM | 786-0 > 100 µM | UO-31 > 100 µM | UACC-257 > 100 µM | A498 > 100 µM | PC-3 > 100 µM | SF-295 > 100 µM | HOP-92 > 100 µM | NCI/ADR-RES > 100 µM | MDA-N > 100 µM | OVCAR-8 > 100 µM | MDA-MB-435 > 100 µM | SN12C > 100 µM | A549 > 100 µM | Malme-3M > 100 µM | UACC-62 > 100 µM | SR > 100 µM | KM12 > 100 µM | K562 > 100 µM | COLO 205 > 100 µM | IGROV-1 > 100 µM | HCC 2998 > 100 µM | HL-60 > 100 µM | MDA-MB-231 > 100 µM | DU-145 > 100 µM | MCF7 > 100 µM | EKVX > 100 µM | OVCAR-3 > 100 µM | MOLT-4 > 100 µM | BT-549 > 100 µM | LOX IMVI > 100 µM | OVCAR-5 > 100 µM | SK-MEL-2 > 100 µM
